“Also recorded” adds a separate entry of the source. Where no end group is shown, it is not given here. The star is where a group is joined. Cam = NC(=O)C*
What was measured:
[1] = test system: Vivax-2 binding to cholesterol-sulfate; assay: Inhibition of binding of Vivax-2 to cholesterol-sulfate; parameters: species or system P. vivax
Experimental: (§1) Solid phase binding assays: Thirty μl of lipids or steroids dissolved in methanol (20-250 μg/ml) were dried into wells of microassay plates (Cat.# 3911—Falcon—Oxnard, Calif.). The plates were then blocked with 1% BSA/PBS pH 7.4 (BSA/PBS) for 30 minutes. Wells were incubated with recombinant protein (or with parasite extract) in PBS/BSA for 1 hour, washed 3 times with BSA/PBS, incubated for 1 hour with monoclonal antibodies 2F2 or 2A10 in BSA/PBS, washed 3 times, and then incubated with (10^5 cpm/well) ^125I protein A (Amersham Corp., Arlington Hts., Ill.). In the case of the P. berghei CS protein, wells were incubated with ^125I labelled mAb 3D11. Wells were washed again and the bound radioactive protein was counted in an LKB gamma-counter (model #1260, Pharmacia, Inc., Gaithersburg, Md.). For inhibition assays, the recombinant proteins were mixed with dilutions of the various polymers in BSA/PBS, the mixture was loaded into the wells of the microtiter plates, and the binding assay performed as above. See also, Roberts, et al. J. Biol. Chem. 260:9405-9411, 1985.

[2] = test system: Vivax-2 binding to sulfatide; assay: Inhibition of binding of Vivax-2 to sulfatide; parameters: species or system P. vivax; settings: for effect on binding to sulfatide: 1 mg/ml
Experimental: as §1

[3] = test system: P. berghei sporozoites; assay: Infection assay of HepG2 cells with polymers; assay type: cell-based
Experimental: Infection assay: Semiconfluent monolayers of HepG2 cells were grown in 10% FCS/MEM on 8 chamber slides (#4808 Lab-tek -Naperville, Ill.) for 24 hours prior to each experiment. Sporozoites were pre-incubated in media alone or with the various polymers for 15 minutes at 4° C. 5×10^4 sporozoites, in a volume of 10 μl, were added per chamber. After 4 hours of incubation at 37° C., the medium containing the sporozoites was gently aspirated, and 0.5 ml MEM/10% FCS was added. Fresh medium was added at 18 hours and 28 hours, and then cells were fixed with methanol containing 0.3% H2O2 at 48 hours. After fixation, the wells were blocked with 10% FCS/PBS and were incubated with 10 μg/ml of mAb 2E6. Binding of the mAb was detected with a polyclonal goat anti-mouse Ig conjugated to horseradish peroxidase. […] The parasites in each well are counted under a 40× light microscope objective.
The cells were fixed and stained with mAb 2E6, followed by goat-anti-mouse linked to horseradish peroxidase. Numbers represent schizonts counted/20 fields under 40× magnification in a light microscope.

[4] = test system: binding of CS27IVC to liver sections; assay: Peptide inhibition of CS27IVC binding to frozen liver sections; parameters: species or system rat; settings: peptide preincubation, up to 500 μg/ml
Experimental: The procedure was carried out essentially as described by Dukor P. et al., Proc. Natl. Acad. Sci. USA 67:991-997, 1970 and Imai Y. et al., J. Cell. Biol. 111:1225-1232, 1990. Rats were euthanized with CO2. Small pieces of the liver, spleen, heart, brain and lung were removed, snap frozen in liquid nitrogen, embedded in Tissue Tek O.C.T. (Miles, Inc., Naperville, Ill.), and cut into 5 μm sections. Sections were dried for 30 min., fixed for 10 min. in 4% paraformaldehyde, rinsed three times with phosphate-buffered saline (PBS), and either used immediately or stored at 4° C. in 1% BSA, 0.5% Tween, PBS (BSA/TPBS). After blocking with 100 mM glycine (pH 7.2) and with BSA/TPBS, the sections were sequentially incubated at 37° C. with recombinant proteins for 1 hr, 10 μg/ml MAb 2A10 for 45 min., and rat anti-mouse immunoglobulin conjugated to fluorescein isothiocyanate (Boehringer Mannheim, Indianapolis, Ind.) for 45 min. The slides were counterstained for 10 min. with 0.3% Evans blue, rinsed extensively in PBS, and finally observed under a fluorescence microscope. For peptide inhibition experiments, the sections were first incubated with the peptide at various concentrations in BSA/TPBS for 1 hour at 37° C., washed six times with BSA/TPBS, and then stained with 2.5 μg/ml CS recombinant protein as described above. In a few experiments, the tissues were fixed for 10 min. with methanol, acetone, or 4% paraformaldehyde containing 0.5% glutaraldehyde.

[5] = test system: binding of CSFZ (Cys) to HepG2 cells; assay: Peptide inhibition of CSFZ (Cys) binding to HepG2 cells; parameters: species or system human; settings: peptides 0-250 μg/ml
Experimental: For indirect immunofluorescence, HepG2 cells (ATCC number HB8065, Rockville, Md.; Knowles, B. P., et al., Science 209:497-499, 1980) were grown on slides (Cel-Line Associates, Inc., Newfield, N.J.) overnight in minimum essential medium with 10% fetal calf serum (FCS-MEM; GIBCO, Grand Island, N.Y.), 1 mM L-glutamine (GIBCO), 3 mg/ml glucose (Sigma), 1×nonessential amino acids (GIBCO), 50 μg/ml penicillin, and 100 μg/ml streptomycin (GIBCO). For the enzyme-linked immunosorbent assay, 10^5 HepG2 cells were deposited in 96-well Falcon tissue culture plates (Becton Dickinson, Oxnard, Calif.) and grown for 24 hr. in FCS-MEM. The cells were fixed with 4% paraformaldehyde, washed three times with PBS, and stored at 4° C. in BSA/TPBS until use. Before the experiments, plates were blocked for 2 hr. at 37° C. with 1% gelatin, 0.05% Tween in PBS (pH 7.4) (gelatin/TPBS). The cells were sequentially incubated at 37° C. with 50 μl of recombinant protein diluted in gelatin/TPBS for 1 hr. MAb 2A10 at a concentration of 10 μg/ml for 30 min. and goat anti-mouse immunoglobulin conjugated to alkaline phosphatase (Boehringer Mannheim) for 30 min. […] After 15 min., fluorescence was read in a Fluoroskan II plate reader (Flow Lab Inc., McLean, Va.) with excitation filter 350 nm and emission filter 460 nm. In the peptide inhibition experiments, wells were first incubated for 1 hr. at 37° C. with peptides diluted in gelatin/TPBS, washed three times with gelatin/TPBS, and then incubated with recombinant CSFZ (Cys) at a concentration of 2.5 μg/ml for 1 hr. at 37° C.
The same assay system was used to evaluate the ability of the various synthetic peptides to inhibit the binding of CSFZ (Cys) to the HepG2 cells. Paraformaldehyde-fixed immobilized HepG2 cells were pre-incubated with peptides at concentrations between 0 and 250 μg/ml, washed, and incubated with CSFZ (Cys) at 2.5 μg/ml. After washing, the cells were incubated with MAb 2A10 followed by anti-mouse IgG conjugated to alkaline phosphatase. […] Each peptide concentration was assayed in triplicate wells and the means of the fluorescent reading were calculated. […] The cysteines and the sulfhydryl groups were necessary for inhibition (Pf1A, Pf1B and Pf2A were not active). […] The results are shown graphically in FIG. 7 wherein percent inhibition (after subtraction of background) is plotted as a function of peptide concentration. Pf1: open circles; Pf2: dark circles; Pf3: open upright triangles; Pf1A dark square; Pf1B open inverted triangles; Pf2A dark triangle; Pf70 open diamond; Pf25C dark diamond. Standard deviations were no greater than ±5% of the plotted mean.

| Substance | % INHIBITION ([1]; inhibitor 10 mg/ml) [%] | effect on binding to sulfatide [2] | % INHIBITION ([2]; inhibitor 1 mg/ml) [%] | inhibition of the binding of CS27IVC to liver sections [4] | inhibition of CSFZ (Cys) binding to HepG2 cells [5] | other results |
| --- | --- | --- | --- | --- | --- | --- |
| keratan-sulfate | 0 | no effect | 37 |  |  |  |
| chondroitin-sulfate A [CHONDROITIN SULFATE-A] | 16 | no effect | 0 |  |  | PARASITE # (exoerythrocytic liver stages in 20 microscope fields, duplicate) ([3]; inhibitor 5 μg/ml present during invasion): 250; effect on sporozoite invasion ([3]; present during invasion, 5-50 μg/ml): no effect; % INHIBITION ([1]; inhibitor 1 mg/ml): 0% |
| PXSVTXGNGIQVRIKPGSAN (PC(Cam)SVTC(Cam)GNGIQVRIKPGSAN) [Pf1B] |  |  |  | failed to inhibit | not active |  |
| KPKHKKLKQPADGNPDPNAN [Pf70] |  |  |  | failed to inhibit | no inhibitory effect |  |
| dermatan sulfate |  | no effect |  |  |  |  |
| chondroitin-sulfate B [CHONDROITIN SULFATE-B] |  | only slightly inhibitory | 34.3 |  |  | % INHIBITION ([1]; inhibitor 0 mg/ml (so in the source)): 51%; % INHIBITION ([1]; inhibitor 100 μg/ml): 0%; % INHIBITION ([1]; inhibitor 1 mg/ml): 27%; % INHIBITION ([2]; inhibitor 100 μg/ml): 22.3% |
| PASVTAGNGIQVRIKPGSAN [Pf1A, Identical to Pf1 except alanine residues are substituted for the two cysteines] |  |  |  | failed to inhibit | not active |  |
| PCSVTCGNGIQVRIKPGSAN [Pf1] |  |  |  | inhibited the binding of CS27IVC | inhibited the CSFZ (Cys) binding; also recorded: competes very effectively |  |
| AGNGIQVRIKPGSANKPKDE [Pf2A, Identical to Pf2 except the first cysteine has been replaced by an alanine residue] |  |  |  | failed to inhibit | not active |  |
| chondroitin-sulfate C [CHONDROITIN SULFATE-C] | 0 | no effect | 0 |  |  |  |
| hyaluronic acid | 28 | no effect | 0 |  |  | % INHIBITION ([1]; inhibitor 1 mg/ml): 0% |
| PGSANKPKDELDYANDIEKK [Pf3, Contains only a C-proximal moiety of Region II+] |  |  |  | failed to inhibit; also recorded: No inhibition of binding |  |  |
| CGNGIQVRIKPGSANKPKDE [Pf2] |  |  |  | inhibited the binding of CS27IVC | inhibited the CSFZ (Cys) binding; also recorded: competes much less effectively |  |
